Test results taken from article PMC3923314 (Biomacromolecules, 2013).

What was measured:
[1] = system: normal rat striatum; test: Convection-enhanced delivery; type: in vivo; conditions: CED, 20 μl, DOX 0.2 mg/ml, Sprague Dawley rats, a week after infusion
[2] = after injection of free DOX; cited from earlier work

In the case of `COc1cccc2c1C(=O)c1c(O)c3c(c(O)c1C2=O)C[C@@](O)(C(=O)CO)C[C@@H]3O[C@H]1C[C@H](N)[C@H](O)[C@H](C)O1` [free DOX, doxorubicin], the “toxicity to brain tissue (H&E staining)” value [1] is given as “significant tissue damage” and the “clearance time from blood circulation” value [2] is given as “tens of minutes”.
